Patent publication US4317768A, “Dihydropyridine derivatives as stabilizers for vinyl chloride polymers” (priority 1977, dated 1982)

What was measured:
[1] = Polarographic study of the oxidation potential; assay type: physicochemical; details: acetonitrile, 0.1 M lithium perchlorate, vitrous carbon electrode, calomel reference
From the text: By a polarographic study of their oxidation potential, compared to well-known antioxidants such as 2,6-diterbutyl-4-methyl-phenol, 2-terbutyl-4-methoxy-phenol, 4-methoxy-phenol and hydroquinone.
Reference electrode: Calomel electrode containing a saturated solution of anhydrous lithium perchlorate as bridge liquid.
Working electrode: Vitrous carbon rotating electrode (2,500 r.p.m.)
Counter-electrode: Platinum electrode
Acetonitrile containing less than 0.1% of water and presenting no polarographic waves between -2.5 V and +2.5 V.
Anhydrous lithium perchlorate containing less than 1% of water.
A 0.1 M solution of lithium perchlorate in acetonitrile, treated and preserved on a 4 A molecular sieve.
Amplitude of exploration: 0 to 2 V
Speed of exploration: 10 mV/second
Sensitivity: 1.25 μA to 50 μA
Mean concentration: about 0.3×10^-3 mol/liter
Between each measurement, the vitrous carbon electrode and the platinum electrode were carefully cleaned with Joseph paper.

[2] = Thermostability, flexible co-polymer (c), Metrastat oven 160° C.; details: 0.3 part
Method: (§1) The study of the static thermostability of vinyl co-polymers was carried out according to the GARDNER method described above and, also in a more detailed manner in British Patent No. 1,489,685.
(c) Flexible co-polymer vinyl chloride-vinyl acetate
(§2) The following compound was prepared:
The sheets were heated in a Metrastat oven at 160° C. and the following results were obtained: […]

[3] = Comparison with 2-phenyl-indole, vinyl chloride-vinylidene chloride co-polymer, 210° C.; details: 0.3 part
Method: A second test was made using the following compound:
The sheets were heated in a ventilated oven at 210° C. and the following results were obtained: […]

[4] = Thermostability, rigid co-polymer (d), ventilated oven 210° C.; details: 0.3 part
Method: as §1
(d) Rigid co-polymer vinyl chloride-vinylidene chloride
as §2
The sheets were heated in a ventilated oven at 210° C.

[5] = Comparison with stabilizer G1, 0.3 part, 185° C.
[6] = Static thermostability (GARDNER), rigid co-polymer, 185° C.; details: for coloration, GARDNER scale: 0.1 part
Method: as §1
(a) Rigid co-polymer vinyl chloride-vinyl acetate
as §2
(§3) The sheets were heated in a ventilated oven at 185° C. and the following results were obtained: […]

[7] = Photostabilizing power, sheets exposed to the sun, rigid co-polymer (b)
Method: (§4) The sheets were exposed to the sun and their colorations were also determined according to the GARDNER method.

[8] = Photostabilizing power, sheets exposed to the sun, co-polymer (a)
Method: as §4

[9] = Thermostability, flexible co-polymer (b), Metrastat oven 160° C.; details: 0.2 part
Method: as §1
(b) Flexible co-polymer vinyl chloride-vinyl acetate.
as §2
The resin was allowed to gel for 5 minutes at 120° C. and the sheets were heated at 160° C. in a Metrastat oven.

[10] = Comparison with 1,4-butanediol-β-aminocrotonate and methyl-β-aminocrotonate, rigid co-polymer, 185° C.; details: 0.5 part
Method: (a) Comparison with 1,4-butanediol-β-aminocrotonate and with methyl-β-aminocrotonate.
The following rigid co-polymer was prepared:
as §3

[11] = Static thermostability (GARDNER method), rigid PVC sheets, 210° C., 0.3 part stabilizer
How it was run: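 Rigid sheets calendered at 160° C. from powdered PVC resin with 0.3 part by weight stabilizer (dihydropyridine or 2-phenyl-indole reference) plus usual ingredients. Sheets heated in oven at 210° C., removed every three minutes over 21 minutes until incipient carbonization. Coloration scored against GARDNER scale reference figures.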

## COc1ccc(O)c(C(C)(C)C)c1 [2-Terbutyl-4-methoxy-phenol]
[1]
  Oxidation potential: 0.81 ± 0.01 volts

## COc1ccc(O)cc1 [4-Methoxy-phenol]
[1]
  Oxidation potential: 0.89 ± 0.01 volts

## CC1=C(C(=O)OCCOc2ccccc2)CC(C(=O)OCCOc2ccccc2)=C(C)N1 [Compound 28]
[2]; 0 min
  coloration, GARDNER scale: 1
[2]; 10 min
  coloration, GARDNER scale: 1
[2]; 20 min
  coloration, GARDNER scale: 2
[2]; 30 min
  coloration, GARDNER scale: 5
[2]; 40 min
  coloration, GARDNER scale: 7
[2]; 50 min
  coloration, GARDNER scale: 10
[2]; 60 min
  coloration, GARDNER scale: 12
[3]; 0 min
  coloration, GARDNER scale: 1.5
[3]; 3 min
  coloration, GARDNER scale: 2
[3]; 6 min
  coloration, GARDNER scale: 3
[3]; 9 min
  coloration, GARDNER scale: 3.5
[3]; 12 min
  coloration, GARDNER scale: 7
[3]; 15 min
  coloration, GARDNER scale: 15
[4]; 0 min
  coloration, GARDNER scale: 1.5
[4]; 3 min
  coloration, GARDNER scale: 2
[4]; 6 min
  coloration, GARDNER scale: 3
[4]; 9 min
  coloration, GARDNER scale: 3.5
[4]; 12 min
  coloration, GARDNER scale: 7
[4]; 15 min
  coloration, GARDNER scale: 15
[5]; 0 min
  coloration, GARDNER scale: 1
[5]; 2 min
  coloration, GARDNER scale: 1
[5]; 4 min
  coloration, GARDNER scale: 2
[5]; 6 min
  coloration, GARDNER scale: 4
[5]; 8 min
  coloration, GARDNER scale: 5
[5]; 10 min
  coloration, GARDNER scale: 9
[5]; 12 min
  coloration, GARDNER scale: 11
[5]; 14 min
  coloration, GARDNER scale: 13
[6]
  thermostabilizing properties, in words: clearly show the thermostabilizing properties
[6]; 0 min
  coloration, GARDNER scale: 1
[6]; 2 min
  coloration, GARDNER scale: 1
[6]; 4 min
  coloration, GARDNER scale: 4
[6]; 6 min
  coloration, GARDNER scale: 10
[6]; 8 min
  coloration, GARDNER scale: 12
[6]; 10 min
  coloration, GARDNER scale: 13
[6]; 12 min
  coloration, GARDNER scale: 15
[6]; 14 min
  coloration, GARDNER scale: 17
[7]; After 24 hours
  Colour in GARDNER degrees: 3.5 GARDNER degrees
[7]; Time 0
  Colour in GARDNER degrees: 1.5 GARDNER degrees
[8]; After 24 hours
  Colour in GARDNER degrees: 1 GARDNER degrees
[8]; Time 0
  Colour in GARDNER degrees: 1 GARDNER degrees
[9]; 0 min
  coloration, GARDNER scale: 1
[9]; 30 min
  coloration, GARDNER scale: 2
[9]; 40 min
  coloration, GARDNER scale: 6
[9]; 50 min
  coloration, GARDNER scale: 12
[9]; 60 min
  coloration, GARDNER scale: 15
[10]; 0 min
  coloration, GARDNER scale: 1
[10]; 2 min
  coloration, GARDNER scale: 1
[10]; 4 min
  coloration, GARDNER scale: 5
[10]; 6 min
  coloration, GARDNER scale: 7
[10]; 8 min
  coloration, GARDNER scale: 11
[10]; 10 min
  coloration, GARDNER scale: 13
[10]; 12 min
  coloration, GARDNER scale: 17
[11]; 0 min
  coloration, GARDNER scale: 1
[11]; 3 min
  coloration, GARDNER scale: 1
[11]; 6 min
  coloration, GARDNER scale: 1
[11]; 9 min
  coloration, GARDNER scale: 3
[11]; 12 min
  coloration, GARDNER scale: 4
[11]; 15 min
  coloration, GARDNER scale: 5
[11]; 18 min
  coloration, GARDNER scale: 10
[11]; 21 min
  coloration, GARDNER scale: Burnt

## Oc1ccc(O)cc1 [Hydroquinone]
[1]
  Oxidation potential: 0.83 ± 0.01 volts
